According to patent publication US20250339399A1, “SUPRAMOLECULAR SELF-ASSEMBLY SYSTEM” (Beijing Creatron Institute of Pharmaceutical Research Co., …, priority 2022, published 2025):
Where “and” joins values, the source holds several entries; their conditions need not be identical. Equal values may be shown once.

Columns and labels:
[1] = cited from earlier work
[2] = Guest molecule concentration after incubation in initial medium without polymer (Comparative Example 1); type: physicochemical; settings: 37° C.
Outline: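 Dissolved guest content measured by HPLC of centrifuged supernatants (37° C., 13000 rpm, 5 min) sampled at 0.5 h, 3 h and 6 h. Incubation was polymer-free at 37° C.±0.5° C. in buffers of pH 2.0-7.4; nominal loading was set by maximum clinical dose.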

[3] = Binary supramolecular self-assembly systems of polymer and target: guest concentration over incubation time (Comparative Example 2); type: physicochemical; settings: for Times that of the initial medium / Concentration of guest molecule in solution: 6 h
Protocol: Experiments were conducted according to the steps in Comparative Example 1, and quantitative analysis was carried out using the analytical method for each target to investigate the regulation ability […] stacking.

[4] = Binary (carrier), ternary and quaternary supramolecular self-assembly systems of polymer, carrier building block and target: guest concentration over incubation time (Examples 1-56); type: physicochemical; settings: for Concentration of guest molecule in solution / Times that of the initial medium: 6 h
Protocol: pH 2.0 hydrochloric acid, pH 4.5 acetate, and pH 6.5, pH 6.8, or pH 7.4 phosphate buffer solutions were prepared. The selection of each initial medium followed the principle that the solubility in the initial medium of the selected targets (or active ingredients) should low enough, but should meet the detection sensitivity and accuracy requirements of the corresponding analytical methods. Each buffer as initial media was placed in a 50 ml test tube with a stopper, shaken in a constant temperature air shaker at 37° C.±0.5° C., with an amplitude of 200 rpm, and incubated for 1 hour. […] Samples were taken at 0.5 h, 3 h and 6 h after incubation, centrifuged at 37° C., 13000 rpm for 5 minutes, and the supernatant was diluted at least 10 times with the mobile phase under the target analyte analytical method, filtered, the initial filtrate was discarded, and the continued filtrate was used as the test solution for injection analysis. The corresponding HPLC method under each target object item in Table 8 was used to determine the content of each target substance. When the solubility of the target in the initial medium is below the quantitative limit of the analytical method, a small amount of surfactant, such as sodium dodecyl sulfate (SDS), Tween20, or Tween80, can be added appropriately.
Experiments were conducted according to the steps in Comparative Example 1, and quantitative analysis was carried out using the analytical method for each target to investigate the regulation ability of each binary supramolecular self-assembly system built from 0.5% polymer and target on guest molecules stacking.
Ternary supramolecular self-assembly systems based on different polymers, carrier building blocks, and targets were built according to the experimental scheme in Table 12, to investigate the influence of synergistic regulation of the carrier building blocks and the polymers on the stacking of target molecules, as well as the stability of the supramolecular self-assembly systems jointly built by them over incubation time. The initial medium, quantitative analysis method, pre-treatment method, and initial theoretical concentration of the target, corresponding to each target molecule in the experiment, were consistent with those in Comparative Examples 1 and 2. After a target was added to the system, the target was uniformly dispersed by ultrasonication at 37° C. for half an hour and then shaken in a 37° C. constant temperature air shaker, and samples were collected after different incubation time, i.e. 0.5 h, 1 h, 2 h, 3 h, 4 h, and 6 h.

[5] = binary system with 0.5% polymer 102, incubation 0.5 h
[6] = binary system with 0.5% polymer 102, incubation 3 h
[7] = binary system with 0.5% polymer 102, incubation 6 h
[8] = binary system with 0.5% polymer 103, incubation 0.5 h
[9] = binary system with 0.5% polymer 103, incubation 3 h
[10] = binary system with 0.5% polymer 103, incubation 6 h
[11] = binary system with 0.5% polymer 104, incubation 0.5 h
[12] = binary system with 0.5% polymer 104, incubation 3 h
[13] = binary system with 0.5% polymer 104, incubation 6 h
[14] = ternary: 102H (0.25% where stated) + 301, carrier % not stated
[15] = ternary: 102H (0.25% where stated) + 302, carrier % not stated
[16] = 0.5 h, 0.05% Tween 20 in pH 6.8 phosphate buffer
[17] = 3 h, 0.05% Tween 20 in pH 6.8 phosphate buffer
[18] = 6 h, 0.05% Tween 20 in pH 6.8 phosphate buffer
[19] = binary system with 0.5% polymer 101, incubation 0.5 h
[20] = binary system with 0.5% polymer 101, incubation 3 h
[21] = binary system with 0.5% polymer 101, incubation 6 h
[22] = binary system with 0.5% polymer 106, incubation 0.5 h
[23] = binary system with 0.5% polymer 106, incubation 3 h
[24] = binary system with 0.5% polymer 106, incubation 6 h
[25] = binary system with 0.5% polymer 107, incubation 0.5 h
[26] = binary system with 0.5% polymer 107, incubation 3 h
[27] = binary system with 0.5% polymer 107, incubation 6 h
[28] = 0.25% 205 (102H+104) + 0.25% 301
[29] = quaternary: 204 (102H+103E5) + 0.5% 301
[30] = ternary: 102H + 313 at further increased mass percentage
[31] = ternary: 102H + 318 at further increased mass percentage

## O=C1[C@H](CC[C@H](O)c2ccc(F)cc2)[C@@H](c2ccc(O)cc2)N1c1ccc(F)cc1 [Ezetimibe]
[1]
  LogD7.4 or Log P: 4.56
[2]; 0.5 h, 0.05% SDS in pH 6.8 phosphate buffer
  Concentration of guest molecule measured after different incubated time: 6.6 µg/mL
[2]; 3 h, 0.05% SDS in pH 6.8 phosphate buffer
  Concentration of guest molecule measured after different incubated time: 6.2 µg/mL
[2]; 6 h, 0.05% SDS in pH 6.8 phosphate buffer
  Concentration of guest molecule measured after different incubated time: 6.4 µg/mL
[3]; [5]
  Concentration of the target in the solution measured after different incubation time: 109.4 µg/mL
[3]; [6]
  Concentration of the target in the solution measured after different incubation time: 117.2 µg/mL
[3]; [7]
  Concentration of the target in the solution measured after different incubation time: 138.9 µg/mL
[3]; [8]
  Concentration of the target in the solution measured after different incubation time: 8.4 µg/mL
[3]; [9]
  Concentration of the target in the solution measured after different incubation time: 6.9 µg/mL
[3]; [10]
  Concentration of the target in the solution measured after different incubation time: 0.9 µg/mL
[3]; [11]
  Concentration of the target in the solution measured after different incubation time: 6.8 µg/mL
[3]; [12]
  Concentration of the target in the solution measured after different incubation time: 3.6 µg/mL
[3]; [13]
  Concentration of the target in the solution measured after different incubation time: 2.7 µg/mL
[3]; binary: 0.5% 101
  Times that of the initial medium: 18 times
[3]; binary: 0.5% 102H
  Concentration of guest molecule in solution: 86.6 µg/mL
  Times that of the initial medium: 13.5 times
[4]; [14]
  Concentration of guest molecule in solution: 168.1 µg/mL
  Times that of the initial medium: 26 times
[4]; [15]
  Concentration of guest molecule in solution: 188.6 µg/mL
  Times that of the initial medium: 29.5 times

## CCOC(=O)C1=C(C)NC(C)=C(C(=O)OC)C1c1cccc(Cl)c1Cl (stereo not shown) [Felodipine]
[1]
  LogD7.4 or Log P: 3.90
[2]; [16]
  Concentration of guest molecule measured after different incubated time: 18.1 µg/mL
[2]; [17]
  Concentration of guest molecule measured after different incubated time: 17.8 µg/mL
[2]; [18]
  Concentration of guest molecule measured after different incubated time: 20.4 µg/mL
[3]; [19]
  Concentration of the target in the solution measured after different incubation time: 144.8 µg/mL
[3]; [20]
  Concentration of the target in the solution measured after different incubation time: 152.8 µg/mL
[3]; [21]
  Concentration of the target in the solution measured after different incubation time: 147.5 µg/mL
[3]; [5]
  Concentration of the target in the solution measured after different incubation time: 459.9 µg/mL
[3]; [6]
  Concentration of the target in the solution measured after different incubation time: 472.0 µg/mL
[3]; [7]
  Concentration of the target in the solution measured after different incubation time: 459.4 µg/mL
[3]; [8]
  Concentration of the target in the solution measured after different incubation time: 18.9 µg/mL
[3]; [9]
  Concentration of the target in the solution measured after different incubation time: 18.9 µg/mL
[3]; [10]
  Concentration of the target in the solution measured after different incubation time: 22.2 µg/mL
[3]; [22]
  Concentration of the target in the solution measured after different incubation time: 33.5 µg/mL
[3]; [23]
  Concentration of the target in the solution measured after different incubation time: 30.2 µg/mL
[3]; [24]
  Concentration of the target in the solution measured after different incubation time: 23.6 µg/mL
[3]; [25]
  Concentration of the target in the solution measured after different incubation time: 51.2 µg/mL
[3]; [26]
  Concentration of the target in the solution measured after different incubation time: 26.7 µg/mL
[3]; [27]
  Concentration of the target in the solution measured after different incubation time: 11.8 µg/mL
[3]; binary: 0.25% 102H
  Concentration of guest molecule in solution: 276 µg/mL
  Times that of the initial medium: about 13.5 times
[4]; ternary: 0.25% 102H + 1.0% 313
  Concentration of guest molecule in solution: 662 µg/mL
  Times that of the initial medium: about 32.5 times

## C=CC(=O)N1CCC[C@@H](n2nc(-c3ccc(Oc4ccccc4)cc3)c3c(N)ncnc32)C1 [Ibrutinib]
[1]
  LogD7.4 or Log P: 3.63
[2]; [16]
  Concentration of guest molecule measured after different incubated time: 16.5 µg/mL
[2]; [17]
  Concentration of guest molecule measured after different incubated time: 17.9 µg/mL
[2]; [18]
  Concentration of guest molecule measured after different incubated time: 18.4 µg/mL
[3]; [19]
  Concentration of the target in the solution measured after different incubation time: 48.5 µg/mL
[3]; [20]
  Concentration of the target in the solution measured after different incubation time: 93.5 µg/mL
[3]; [21]
  Concentration of the target in the solution measured after different incubation time: 95.3 µg/mL
[3]; [5]
  Concentration of the target in the solution measured after different incubation time: 168.1 µg/mL
[3]; [6]
  Concentration of the target in the solution measured after different incubation time: 176.4 µg/mL
[3]; [7]
  Concentration of the target in the solution measured after different incubation time: 154.5 µg/mL
[3]; [8]
  Concentration of the target in the solution measured after different incubation time: 44.1 µg/mL
[3]; [9]
  Concentration of the target in the solution measured after different incubation time: 17.8 µg/mL
[3]; [10]
  Concentration of the target in the solution measured after different incubation time: 17.1 µg/mL
[3]; [11]
  Concentration of the target in the solution measured after different incubation time: 13.4 µg/mL
[3]; [12]
  Concentration of the target in the solution measured after different incubation time: 13.7 µg/mL
[3]; [13]
  Concentration of the target in the solution measured after different incubation time: 14.3 µg/mL
[3]; [22]
  Concentration of the target in the solution measured after different incubation time: 33.8 µg/mL
[3]; [23]
  Concentration of the target in the solution measured after different incubation time: 65.9 µg/mL
[3]; [24]
  Concentration of the target in the solution measured after different incubation time: 68.4 µg/mL
[3]; [25]
  Concentration of the target in the solution measured after different incubation time: 47.9 µg/mL
[3]; [26]
  Concentration of the target in the solution measured after different incubation time: 53.1 µg/mL
[3]; [27]
  Concentration of the target in the solution measured after different incubation time: 56.0 µg/mL
[3]; binary: 0.25% 102H
  Concentration of guest molecule in solution: 260.2 µg/mL
  Times that of the initial medium: 14 times and 14.5 times
[4]; [28]
  Concentration of guest molecule in solution: 157.4 µg/mL
  Times that of the initial medium: 8.6 times
[4]; binary, no polymer: 0.5% 301
  Concentration of guest molecule in solution: 156.9 µg/mL
  Times that of the initial medium: 8.5 times
[4]; [29]
  Concentration of guest molecule in solution: 206.4 µg/mL
  Times that of the initial medium: 11 times
[4]; ternary: 0.25% 102H + 0.5% 319
  Encapsulation rate for the guest molecule: ~100%
[4]; [14]
  Concentration of guest molecule in solution: 446.0 µg/mL
  Times that of the initial medium: about 25 times
[4]; [15]
  Concentration of guest molecule in solution: 410.7 µg/mL
  Times that of the initial medium: 22 times
[4]; ternary: 102H + 313, carrier % not given
  Concentration of guest molecule in solution: 436.6 µg/mL
[4]; [30]
  Encapsulation rate for the guest molecule: ~100%
  Concentration of guest molecule in solution: 792.1 µg/mL
  Times that of the initial medium: 43 times
[4]; ternary: 102H + 318, carrier % not stated
  Concentration of guest molecule in solution: 429.9 µg/mL
[4]; [31]
  Concentration of guest molecule in solution: 774.7 µg/mL
  Times that of the initial medium: 42 times
